Source: patent US20230382926A1, “COMPOUNDS AND USES THEREOF” (The University of The West Indies, priority 2022, published 2023)

Key:
Assay in all cases: Rescue concentration, modified checkerboard MIC adjuvant assay
Type in all cases: cell-based
[1] = system: Acinetobacter baumannii clinical isolate 9978; conditions: A. baumannii clinical isolate 9978
Experimental: (§1) Reference microorganisms as well as clinical strains used to evaluate the antimicrobial adjuvant properties of SP-6azaBIM 125 and SP-6azaBIM 136 are listed in Table 3. Clinical strains of bacteria were kindly provided by the Faculty of Medical Sciences, UWI, St. Augustine, Trinidad. All bacterial cultures were cryopreserved in 30% glycerol/Brain Heart Infusion (BHI) at −80° C. Cultures were revived on BHI agar (Oxoid Ltd, England) and maintained at 4° C. until needed.
(§2) Prior to each experiment, cultures were streaked onto clean BHI agar plates and incubated at 35° C. for 24 hours. Colonies of the respective cultures were selected and inoculated in phosphate buffer saline (pH 7.5) to a 0.5 McFarland turbidity standard (equivalent to 10^8 CFU mL^−1). For inhibitory studies the bacterial suspensions were diluted 1:100 in cation-adjusted Mueller Hinton Broth (ca-MHB) (Oxoid Ltd, England). Fastidious bacteria including Streptococcus pneumoniae, Haemophilus infuenzae and Clostridium difficile were maintained on BHI agar with 5% defibrinated sheep blood and diluted in ca-MHB with 5% defibrinated sheep blood.
(§3) Antibiotic powders used in this study were purchased from Sigma Aldrich Ltd. (WI, USA). Antibiotic stock solutions were made at 50 mg mL^−1 according to Andrews (2001) and working solutions were prepared 24 h before use and stored at 4° C.
(§4) HCl salts of the of the SP-azaBIM test compounds were prepared prior to testing and stored at 4° C. Working preparations of each compound were made to 1 mg/mL in sterile deionised water.
(§5) The antibiotic adjuvant activity of the SPazaBIMs were evaluated in combination with representative antibiotics (representing 13 antibiotic classes) against the 19 pathogens strains listed in Table 3. To assess the adjuvant properties of the SP-azaBIM molecules, a modified checkerboard minimum inhibitory concentration assay was used. A fixed concentration of the respective antibiotic (susceptible breakpoint concentration) was mixed with a twofold dilution series of the test SP-azaBIM (FIG. 1). This was to determine the concentration of SP-azaBIM needed potentiate the antibiotic at a clinically susceptible breakpoint concentration. Antibiotic susceptible breakpoint concentrations for the respective bacteria were determined using Clinical Laboratory Standards Institute (CLSI) criteria M100 ED31.
(§6) In this study, only those antibiotics to which the bacterial was classed as resistant were included in the adjuvant assays. In this assay we recorded the rescue concentration of the SP-BIM for a respective antibiotic. The rescue concentration was defined as the concentration of the adjuvant that reduces the minimum inhibitory concentration (MIC) of an antibiotic to the susceptibility breakpoint.
(§7) Immediately prior to testing, the respective antibiotic and SP-azaBIM was dissolved in sterile deionised water at 20× the required test concentration. Each microtiter well was then inoculated with 180 μl of bacterial inoculum of 10^6 CFU/ml in ca-MHB, and 10 μl each if the antibiotic and SP-azaBIM was added to the plates. These plates were then incubated at 35° C. for 24 h under aerobic conditions. A similar method was followed for the fastidious pathogens except that they were cultured in ca-MHB with 5% sheep blood and 5% CO2.
(§8) Bacterial growth was visually inspected after the incubation period and the rescue concentration of the test SP-azaBIM was determined as the lowest concentration of the compound needed to reduce bacterial growth by 99.99% at the susceptible breakpoint concentration of the antibiotic. For example, CLSI states that Pseudomonas aeruginosa is susceptible to the Imipenem if the MIC is ≤2 μg mL^−1. If the bacteria can tolerate this concentration in vitro, then the bacteria has an intermediate or absolute resistance toward that antibiotic. […]

[2] = system: Enterococcus faecalis ATCC 51299; conditions: E. faecalis ATCC 51299
Experimental: as §1, §2, §3, §4, §5, §6, §7, §8

[3] = system: Escherichia coli ATCC 35150; conditions: E. coli ATCC 35150
Experimental: as §1, §2, §3, §4, §5, §6, §7, §8

[4] = system: Klebsiella pneumoniae ATCC 49472; conditions: K. pneumoniae ATCC 49472
Experimental: as §1, §2, §3, §4, §5, §6, §7, §8

[5] = system: Klebsiella pneumoniae ATCC BAA-2814; conditions: K. pneumoniae ATCC BAA-2814
Experimental: as §1, §2, §3, §4, §5, §6, §7, §8

[6] = system: Pseudomonas aeruginosa MDR 5805; conditions: P. aeruginosa MDR 5805
Experimental: as §1, §2, §3, §4, §5, §6, §7, §8

[7] = system: Staphylococcus aureus ATCC BAA-2312; conditions: S. aureus ATCC BAA-2312
Experimental: as §1, §2, §3, §4, §5, §6, §7, §8

[8] = system: Stenotrophomonas maltophilia MDR 7785; conditions: S. maltophilia MDR 7785
Experimental: as §1, §2, §3, §4, §5, §6, §7, §8

[9] = Amox at susceptible breakpoint 8 μg mL^−1
[10] = Cef at susceptible breakpoint 8 μg mL^−1
[11] = Col at susceptible breakpoint 2 μg mL^−1
[12] = Gen at susceptible breakpoint 4 μg mL^−1
[13] = Imi at susceptible breakpoint 2 μg mL^−1
[14] = Mero at susceptible breakpoint 2 μg mL^−1
[15] = Pol B at susceptible breakpoint 2 μg mL^−1
[16] = Amp at susceptible breakpoint 8 μg mL^−1
[17] = Chl at susceptible breakpoint 8 μg mL^−1
[18] = Dox at susceptible breakpoint 4 μg mL^−1
[19] = Tri at susceptible breakpoint 8 μg mL^−1
[20] = Col at susceptible breakpoint 8 μg mL^−1
[21] = Imi at susceptible breakpoint 1 μg mL^−1
[22] = Ceph at susceptible breakpoint 8 μg mL^−1

For `Brc1ccc(C(c2c[nH]c3ncccc23)c2c[nH]c3ncccc23)cc1` [SP-7azaBIM 126, 3,3′-((4-bromophenyl)methylene)bis(1H-pyrrolo[2,3-b]pyridine)], the “Rescue concentration, Amox (8)” value [1, 9] was greater than 128 µg/mL, the “Rescue concentration, Cef (8)” value [1, 10] was greater than 128 µg/mL and the “Rescue concentration, Col (2)” value [1, 11] was greater than 128 µg/mL. For the same compound, the “Rescue concentration, Gen (4)” value [1, 12] was greater than 128 µg/mL, the “Rescue concentration, Imi (2)” value [1, 13] was greater than 128 µg/mL and the “Rescue concentration, Mero (2)” value [1, 14] was greater than 128 µg/mL. The “Rescue concentration, Pol B (2)” value [1, 15] was greater than 128 µg/mL, the “Rescue concentration, Amp (8)” value [2, 16] was 32 µg/mL and the “Rescue concentration, Chl (8)” value [2, 17] was greater than 128 µg/mL. For the same compound, the “Rescue concentration, Dox (4)” value [2, 18] was greater than 128 µg/mL, the “Rescue concentration, Ery (0.5)” value ([2]; Ery at susceptible breakpoint 0.5 μg mL^−1) was greater than 128 µg/mL and the “Rescue concentration, Tri (8)” value [2, 19] was greater than 128 µg/mL. The “Rescue concentration, Van (4)” value ([2]; Van at susceptible breakpoint 4 μg mL^−1) was 64 µg/mL, the “Rescue concentration, Amp (8)” value [3, 16] was greater than 128 µg/mL and the “Rescue concentration, Cip (0.25)” value ([3]; Cip at susceptible breakpoint 0.25 μg mL^−1) was greater than 128 µg/mL. For the same compound, the “Rescue concentration, Col (8)” value [3, 20] was greater than 128 µg/mL, the “Rescue concentration, Dox (4)” value [3, 18] was greater than 128 µg/mL and the “Rescue concentration, Gen (4)” value [3, 12] was greater than 128 µg/mL. The “Rescue concentration, Imi (1)” value [3, 21] was greater than 128 µg/mL, the “Rescue concentration, Amox (8)” value [4, 9] was greater than 128 µg/mL and the “Rescue concentration, Amp (8)” value [4, 16] was greater than 128 µg/mL. For the same compound, the “Rescue concentration, Col (8)” value [4, 20] was greater than 128 µg/mL, the “Rescue concentration, Imi (1)” value [4, 21] was greater than 128 µg/mL and the “Rescue concentration, Mero (1)” value ([4]; Mero at susceptible breakpoint 1 μg mL^−1) was greater than 128 µg/mL. For the same compound, the “Rescue concentration, Pol B (8)” value ([4]; Pol B at susceptible breakpoint 8 μg mL^−1) was greater than 128 µg/mL, the “Rescue concentration, Amox (8)” value [5, 9] was greater than 128 µg/mL and the “Rescue concentration, Amp (8)” value [5, 16] was greater than 128 µg/mL. The “Rescue concentration, Aze (4)” value ([5]; Aze at susceptible breakpoint 4 μg mL^−1) was greater than 128 µg/mL, the “Rescue concentration, Azi (16)” value ([5]; Azi at susceptible breakpoint 16 μg mL^−1) was greater than 128 µg/mL and the “Rescue concentration, Cef (16)” value ([5]; Cef at susceptible breakpoint 16 μg mL^−1) was greater than 128 µg/mL. The “Rescue concentration, Ceph (8)” value [5, 22] was greater than 128 µg/mL, the “Rescue concentration, Chl (8)” value [5, 17] was greater than 128 µg/mL and the “Rescue concentration, Col (8)” value [5, 20] was greater than 128 µg/mL. The “Rescue concentration, Dox (4)” value [5, 18] was greater than 128 µg/mL, the “Rescue concentration, Gen (4)” value [5, 12] was greater than 128 µg/mL and the “Rescue concentration, Imi (1)” value [5, 21] was greater than 128 µg/mL. The “Rescue concentration, Tet (4)” value ([5]; Tet at susceptible breakpoint 4 μg mL^−1) was greater than 128 µg/mL, the “Rescue concentration, Amox (8)” value [6, 9] was greater than 128 µg/mL and the “Rescue concentration, Col (2)” value [6, 11] was greater than 128 µg/mL. For the same compound, the “Rescue concentration, Gen (4)” value [6, 12] was greater than 128 µg/mL, the “Rescue concentration, Imi (2)” value [6, 13] was greater than 128 µg/mL and the “Rescue concentration, Mero (2)” value [6, 14] was greater than 128 µg/mL. For the same compound, the “Rescue concentration, Pol B (2)” value [6, 15] was greater than 128 µg/mL, the “Rescue concentration, Azi (2)” value ([7]; Azi at susceptible breakpoint 2 μg mL^−1) was greater than 128 µg/mL and the “Rescue concentration, Gen (4)” value [7, 12] was greater than 128 µg/mL. The “Rescue concentration, Pen (0.12)” value ([7]; Pen at susceptible breakpoint 0.12 μg mL^−1) was greater than 128 µg/mL, the “Rescue concentration, Tri (8)” value [7, 19] was greater than 128 µg/mL and the “Rescue concentration, Van (2)” value ([7]; Van at susceptible breakpoint 2 μg mL^−1) was greater than 128 µg/mL. The “Rescue concentration, Cef (8)” value [8, 10] was greater than 128 µg/mL, the “Rescue concentration, Ceph (8)” value [8, 22] was greater than 128 µg/mL and the “Rescue concentration, Chl (8)” value [8, 17] was greater than 128 µg/mL. The “Rescue concentration, Cip (2)” value ([8]; Cip at susceptible breakpoint 2 μg mL^−1) was greater than 128 µg/mL, the “Rescue concentration, Gen (4)” value [8, 12] was greater than 128 µg/mL and the “Rescue concentration, Imi (2)” value [8, 13] was 16 µg/mL. The “Rescue concentration, Mero (2)” value [8, 14] was 32 µg/mL and the “Rescue concentration, Tri (2)” value ([8]; Tri at susceptible breakpoint 2 μg mL^−1) was greater than 128 µg/mL.
